From EPA's ToxValDB 9.5 (doi:10.2903/j.efsa.2006.83r)
Converted amounts (≈) assume the structure as drawn. “And” between values parts separate entries of the source, which are not always exact repeats. Identical values can stand only once.

Tests used:
Apis mellifera = conditions: acute; duration: 48 hours; dermal; mortality
Daphnia magna = conditions: chronic/long-term; duration: 21 days
Lepomis macrochirus = conditions: acute; duration: 96 hours; mortality
Pimephales promelas = conditions: chronic/long-term
Rattus norvegicus = conditions: acute; oral; gavage; M/F; clinical chemistry
Tagia sp. = conditions: acute; duration: 14 days; mortality
Aphidius rhopalosiphi = experiment: LR50; higher = less toxic; conditions: acute; duration: 48 hours; mortality

For `CNC(=O)ON=C(C)SC` [Methomyl], the LD50 (acute, oral, unspecified, mortality) was 30 mg/kg, the NOAEL (reproductive, development) was 75 mg/kg and the NOEC (Anas platyrhynchos; reproductive) was 150 mg/kg. The LC50 (Anas platyrhynchos; short-term, oral, feed, mortality) was 3950 mg/kg, the LD50 (Apis mellifera) was 0.16 µg/piece and the LD50 (Colinus virginianus; acute, oral, mortality) was 24.2 mg/kg and 30.4 mg/kg. For the same compound, the NOEC (Colinus virginianus; reproduction developmental) was 150 mg/kg-day, the NOEC (Daphnia magna) was 0.0016 mg/L and the LC50 (Lepomis macrochirus) was 0.63 µg/mL (≈ 3.88 µM). It also gave an NOEC (Pimephales promelas) of 0.073 mg/L, an NOAEL (Rattus norvegicus) of 0.25 mg/kg-day and an LC50 (Tagia sp.) of 19 mg/kg. The LR50 (Aphidius rhopalosiphi) was 0.25 g/ha.
